Publication PMC7955952 (Pharmacology Research & Perspectives, 2021)

Target: Focal adhesion kinase (FAK) (Homo sapiens, UniProt Q05397)
Assay: biochemical

Sequence of Focal adhesion kinase (FAK) (Q05397 393-698): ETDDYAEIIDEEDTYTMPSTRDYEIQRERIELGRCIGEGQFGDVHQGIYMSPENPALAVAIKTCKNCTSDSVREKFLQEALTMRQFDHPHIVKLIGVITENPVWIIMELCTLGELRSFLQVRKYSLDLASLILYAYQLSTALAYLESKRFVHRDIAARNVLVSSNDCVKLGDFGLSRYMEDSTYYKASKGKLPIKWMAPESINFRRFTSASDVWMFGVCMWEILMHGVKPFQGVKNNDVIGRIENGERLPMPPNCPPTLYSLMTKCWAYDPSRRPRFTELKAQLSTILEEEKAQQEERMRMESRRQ

IC50: 9 ± 0.03 nM
SMILES: CS(=O)(=O)c1cccc(CNc2nc(Nc3ccc4c(c3)CCC(=O)N4)ncc2C(F)(F)F)c1 [PF573228, 6‐[[4‐[(3‐methylsulfonylphenyl)methylamino]‐5‐(trifluoromethyl)pyrimidin‐2‐yl]amino]‐3,4‐dihydro‐1H‐quinolin‐2‐one]
